Laboratory results taken from ChEMBL document CHEMBL5465560, “Selectivity Literature for EUbOPEN Chemogenomic Library” (2024).

Assays:
[1] = biological target: Chromatin remodeling regulator CECR2 (Homo sapiens, UniProt Q9BXF3); assay: Selectivity interaction (Human bromodomain panel (DSF assay)) EUB0000233b CECR2
[2] = biological target: T1, 5-hydroxytryptamine receptor 2C (Homo sapiens) (UniProt P28335); assay: Selectivity interaction (GPCR panel (PDSP screen)) EUB0000311b HTR2C; conditions: at 10 µM
T1 sequence (whole entry): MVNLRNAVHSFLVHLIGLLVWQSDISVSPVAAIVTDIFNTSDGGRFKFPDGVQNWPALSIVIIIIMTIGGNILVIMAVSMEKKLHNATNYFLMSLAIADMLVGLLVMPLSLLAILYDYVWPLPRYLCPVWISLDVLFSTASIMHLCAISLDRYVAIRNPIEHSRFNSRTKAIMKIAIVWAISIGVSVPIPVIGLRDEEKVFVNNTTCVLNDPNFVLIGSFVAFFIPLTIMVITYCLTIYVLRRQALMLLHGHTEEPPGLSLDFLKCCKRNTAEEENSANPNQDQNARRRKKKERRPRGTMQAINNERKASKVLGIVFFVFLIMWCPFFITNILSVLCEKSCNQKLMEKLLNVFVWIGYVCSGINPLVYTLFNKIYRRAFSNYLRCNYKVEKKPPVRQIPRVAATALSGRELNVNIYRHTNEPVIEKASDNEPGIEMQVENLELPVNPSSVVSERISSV

[3] = biological target: T2, Protein kinase C iota type (Homo sapiens) (UniProt P41743); assay: Selectivity interaction (KinomeScan (DiscoverX)) EUB0000045b PRKCI
T2 sequence (whole entry): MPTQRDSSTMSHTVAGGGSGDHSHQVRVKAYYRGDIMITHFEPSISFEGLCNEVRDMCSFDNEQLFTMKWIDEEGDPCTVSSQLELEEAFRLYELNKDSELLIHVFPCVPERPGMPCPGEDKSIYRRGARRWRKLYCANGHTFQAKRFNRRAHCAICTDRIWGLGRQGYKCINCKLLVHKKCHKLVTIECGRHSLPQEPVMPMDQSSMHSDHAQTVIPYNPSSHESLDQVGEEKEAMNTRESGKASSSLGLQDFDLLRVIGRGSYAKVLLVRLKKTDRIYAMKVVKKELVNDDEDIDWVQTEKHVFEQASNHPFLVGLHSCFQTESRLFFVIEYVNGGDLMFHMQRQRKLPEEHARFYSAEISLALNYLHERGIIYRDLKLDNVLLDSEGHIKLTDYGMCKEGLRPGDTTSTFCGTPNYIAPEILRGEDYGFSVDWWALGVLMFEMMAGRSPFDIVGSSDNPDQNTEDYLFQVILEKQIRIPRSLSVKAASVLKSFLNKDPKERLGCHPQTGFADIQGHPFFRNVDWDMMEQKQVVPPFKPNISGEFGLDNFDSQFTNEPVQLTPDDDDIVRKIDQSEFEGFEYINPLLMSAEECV

[4] = tested on: eIF-2-alpha kinase GCN2 (Homo sapiens), Q9P2K8 [S808G]; assay: Selectivity interaction (KinomeScan (DiscoverX)) EUB0000695a EIF2AK4; conditions: at 100 nM
Chain of eIF-2-alpha kinase GCN2 (Homo sapiens), Q9P2K8 [S808G] (Q9P2K8 whole entry S808G): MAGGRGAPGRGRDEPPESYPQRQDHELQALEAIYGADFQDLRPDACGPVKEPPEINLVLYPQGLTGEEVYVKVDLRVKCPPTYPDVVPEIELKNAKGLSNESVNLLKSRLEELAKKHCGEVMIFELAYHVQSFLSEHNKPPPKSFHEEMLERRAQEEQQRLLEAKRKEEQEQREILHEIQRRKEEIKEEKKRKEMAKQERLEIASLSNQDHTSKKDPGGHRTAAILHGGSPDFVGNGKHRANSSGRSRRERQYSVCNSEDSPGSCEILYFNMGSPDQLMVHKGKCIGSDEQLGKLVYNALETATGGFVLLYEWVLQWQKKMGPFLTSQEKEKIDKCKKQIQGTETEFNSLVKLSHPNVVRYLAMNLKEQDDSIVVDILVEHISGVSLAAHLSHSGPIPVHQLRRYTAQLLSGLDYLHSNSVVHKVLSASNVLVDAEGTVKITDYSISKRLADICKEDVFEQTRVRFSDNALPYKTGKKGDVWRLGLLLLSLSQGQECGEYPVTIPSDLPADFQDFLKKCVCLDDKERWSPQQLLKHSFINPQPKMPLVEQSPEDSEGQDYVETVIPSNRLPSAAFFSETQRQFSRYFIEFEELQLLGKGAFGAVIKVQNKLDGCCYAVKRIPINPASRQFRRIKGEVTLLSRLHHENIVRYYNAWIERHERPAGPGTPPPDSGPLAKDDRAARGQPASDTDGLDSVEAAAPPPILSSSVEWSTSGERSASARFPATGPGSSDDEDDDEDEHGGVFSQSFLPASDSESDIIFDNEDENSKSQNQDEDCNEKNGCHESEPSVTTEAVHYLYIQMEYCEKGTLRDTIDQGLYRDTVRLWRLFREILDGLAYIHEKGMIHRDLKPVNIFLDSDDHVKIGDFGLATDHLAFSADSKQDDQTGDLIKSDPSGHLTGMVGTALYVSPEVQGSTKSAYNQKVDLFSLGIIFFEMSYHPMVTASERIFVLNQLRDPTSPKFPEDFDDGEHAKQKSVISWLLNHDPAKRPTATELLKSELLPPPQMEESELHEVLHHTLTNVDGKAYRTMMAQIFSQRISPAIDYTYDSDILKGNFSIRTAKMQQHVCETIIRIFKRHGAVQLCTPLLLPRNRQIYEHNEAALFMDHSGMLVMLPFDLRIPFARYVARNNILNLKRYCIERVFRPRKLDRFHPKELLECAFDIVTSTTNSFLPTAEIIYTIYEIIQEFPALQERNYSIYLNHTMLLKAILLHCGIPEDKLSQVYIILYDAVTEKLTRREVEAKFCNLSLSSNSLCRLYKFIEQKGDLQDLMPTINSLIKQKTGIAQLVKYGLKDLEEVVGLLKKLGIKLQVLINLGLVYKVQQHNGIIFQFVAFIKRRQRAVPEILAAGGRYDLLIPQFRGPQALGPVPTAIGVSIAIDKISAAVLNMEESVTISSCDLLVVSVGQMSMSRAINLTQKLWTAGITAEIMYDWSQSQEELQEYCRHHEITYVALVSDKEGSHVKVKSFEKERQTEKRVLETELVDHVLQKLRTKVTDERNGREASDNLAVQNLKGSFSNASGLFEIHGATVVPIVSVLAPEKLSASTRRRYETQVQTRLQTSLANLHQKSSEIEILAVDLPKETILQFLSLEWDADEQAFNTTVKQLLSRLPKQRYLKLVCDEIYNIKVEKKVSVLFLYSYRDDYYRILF

[5] = biological target: T3, Aurora kinase C (Homo sapiens) (UniProt Q9UQB9); assay: Selectivity interaction (KinomeScan (DiscoverX)) EUB0001049a AURKC; conditions: at 1 µM
T3 sequence (whole entry): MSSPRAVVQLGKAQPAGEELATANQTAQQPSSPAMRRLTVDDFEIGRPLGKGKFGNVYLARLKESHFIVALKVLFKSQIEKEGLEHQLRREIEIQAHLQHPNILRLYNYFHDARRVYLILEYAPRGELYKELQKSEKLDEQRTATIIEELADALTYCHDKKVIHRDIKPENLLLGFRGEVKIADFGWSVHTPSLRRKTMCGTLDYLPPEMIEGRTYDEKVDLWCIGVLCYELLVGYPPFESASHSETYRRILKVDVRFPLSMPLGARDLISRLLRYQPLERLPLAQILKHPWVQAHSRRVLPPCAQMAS

[6] = biological target: T4, Serine/threonine-protein kinase STK11 (Homo sapiens) (UniProt Q15831); assay: Selectivity interaction (KinomeScan (DiscoverX)) EUB0001619a STK11; conditions: at 1 µM
T4 sequence (whole entry): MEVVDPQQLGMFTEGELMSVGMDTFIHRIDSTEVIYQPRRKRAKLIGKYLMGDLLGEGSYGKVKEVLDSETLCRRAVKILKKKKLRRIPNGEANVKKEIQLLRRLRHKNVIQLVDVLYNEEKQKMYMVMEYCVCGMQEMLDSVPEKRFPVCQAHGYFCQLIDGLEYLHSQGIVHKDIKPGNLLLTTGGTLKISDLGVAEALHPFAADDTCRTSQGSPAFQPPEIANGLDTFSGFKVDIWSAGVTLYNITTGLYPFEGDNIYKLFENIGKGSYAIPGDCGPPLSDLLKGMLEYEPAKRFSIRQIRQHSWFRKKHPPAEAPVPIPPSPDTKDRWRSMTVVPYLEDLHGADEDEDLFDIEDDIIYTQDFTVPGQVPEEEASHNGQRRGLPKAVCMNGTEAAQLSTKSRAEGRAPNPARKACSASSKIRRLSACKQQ

[7] = biological target: Mitogen-activated protein kinase 14 (Homo sapiens, UniProt Q16539); assay: Selectivity interaction (Radiometric kinase assay (using 10 uM ATP)) EUB0000601a MAPK14
Chain of Mitogen-activated protein kinase 14 (Q16539 whole entry): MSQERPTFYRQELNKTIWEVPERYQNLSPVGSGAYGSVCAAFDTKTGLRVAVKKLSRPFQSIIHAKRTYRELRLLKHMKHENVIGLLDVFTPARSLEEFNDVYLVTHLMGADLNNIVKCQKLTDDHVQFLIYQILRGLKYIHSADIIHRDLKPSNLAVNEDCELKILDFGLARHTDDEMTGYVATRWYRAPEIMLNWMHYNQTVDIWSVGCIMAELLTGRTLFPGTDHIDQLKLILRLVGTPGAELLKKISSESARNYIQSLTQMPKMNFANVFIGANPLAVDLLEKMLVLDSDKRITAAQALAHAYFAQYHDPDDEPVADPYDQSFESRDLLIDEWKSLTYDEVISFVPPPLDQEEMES

[8] = biological target: T5, Mitogen-activated protein kinase kinase kinase 2 (Homo sapiens) (UniProt Q9Y2U5); assay: (§1) Selectivity interaction (ActivX KiNativ screen (kinase selectivity in THP-1 cell lysates)) EUB0000639a MAP3K2; assay type: subcellular; conditions: lysate
T5 sequence (whole entry): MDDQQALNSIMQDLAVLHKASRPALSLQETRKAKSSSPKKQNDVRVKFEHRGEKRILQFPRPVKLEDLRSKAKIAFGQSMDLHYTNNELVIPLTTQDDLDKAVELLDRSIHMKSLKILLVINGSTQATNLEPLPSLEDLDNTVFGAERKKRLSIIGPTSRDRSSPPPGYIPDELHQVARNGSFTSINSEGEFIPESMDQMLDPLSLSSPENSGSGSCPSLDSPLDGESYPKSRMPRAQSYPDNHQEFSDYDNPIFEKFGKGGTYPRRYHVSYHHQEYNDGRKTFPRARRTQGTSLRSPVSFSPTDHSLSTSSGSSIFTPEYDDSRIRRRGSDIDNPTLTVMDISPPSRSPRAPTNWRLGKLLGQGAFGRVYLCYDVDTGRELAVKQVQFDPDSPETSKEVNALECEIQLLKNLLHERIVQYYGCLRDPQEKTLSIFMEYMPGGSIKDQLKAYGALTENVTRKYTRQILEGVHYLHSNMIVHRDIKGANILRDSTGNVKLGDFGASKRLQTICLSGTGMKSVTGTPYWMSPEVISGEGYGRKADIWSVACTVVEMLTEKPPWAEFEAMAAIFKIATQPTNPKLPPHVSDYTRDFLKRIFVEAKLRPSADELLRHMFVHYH

[9] = biological target: T5, Mitogen-activated protein kinase kinase kinase 2 (Homo sapiens); assay: as §1; assay type: subcellular; conditions: lysate, at 5 µM
[10] = biological target: Mitogen-activated protein kinase kinase kinase kinase 5 (Homo sapiens) (UniProt Q9Y4K4); assay: Selectivity interaction (KinomeScan (DiscoverX)) EUB0000092b MAP4K5; conditions: at 10 µM
Chain of Mitogen-activated protein kinase kinase kinase kinase 5 (Homo sapiens) (Q9Y4K4 whole entry, looked up): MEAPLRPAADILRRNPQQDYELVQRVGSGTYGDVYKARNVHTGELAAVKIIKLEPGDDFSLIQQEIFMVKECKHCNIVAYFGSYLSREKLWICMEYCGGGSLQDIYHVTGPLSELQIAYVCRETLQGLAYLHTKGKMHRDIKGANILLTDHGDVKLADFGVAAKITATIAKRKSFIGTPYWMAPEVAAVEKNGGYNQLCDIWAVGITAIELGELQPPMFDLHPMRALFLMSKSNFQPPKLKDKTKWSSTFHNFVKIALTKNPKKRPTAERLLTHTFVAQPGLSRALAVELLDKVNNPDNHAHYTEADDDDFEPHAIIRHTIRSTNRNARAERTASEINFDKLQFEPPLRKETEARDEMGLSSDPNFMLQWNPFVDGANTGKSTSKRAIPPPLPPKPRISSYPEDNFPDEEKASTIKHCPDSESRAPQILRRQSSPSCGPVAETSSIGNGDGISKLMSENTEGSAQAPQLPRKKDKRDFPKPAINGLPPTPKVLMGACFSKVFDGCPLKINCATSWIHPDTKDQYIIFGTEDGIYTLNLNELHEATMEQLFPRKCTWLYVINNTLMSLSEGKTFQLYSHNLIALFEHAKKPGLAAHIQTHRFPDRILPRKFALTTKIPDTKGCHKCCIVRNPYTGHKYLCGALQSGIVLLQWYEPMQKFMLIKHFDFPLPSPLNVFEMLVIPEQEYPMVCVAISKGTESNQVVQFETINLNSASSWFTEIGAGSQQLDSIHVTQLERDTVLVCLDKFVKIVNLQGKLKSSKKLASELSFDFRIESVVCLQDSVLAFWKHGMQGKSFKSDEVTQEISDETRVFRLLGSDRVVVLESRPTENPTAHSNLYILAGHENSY

Chain of Chromatin remodeling regulator CECR2 (Q9BXF3 whole entry, looked up): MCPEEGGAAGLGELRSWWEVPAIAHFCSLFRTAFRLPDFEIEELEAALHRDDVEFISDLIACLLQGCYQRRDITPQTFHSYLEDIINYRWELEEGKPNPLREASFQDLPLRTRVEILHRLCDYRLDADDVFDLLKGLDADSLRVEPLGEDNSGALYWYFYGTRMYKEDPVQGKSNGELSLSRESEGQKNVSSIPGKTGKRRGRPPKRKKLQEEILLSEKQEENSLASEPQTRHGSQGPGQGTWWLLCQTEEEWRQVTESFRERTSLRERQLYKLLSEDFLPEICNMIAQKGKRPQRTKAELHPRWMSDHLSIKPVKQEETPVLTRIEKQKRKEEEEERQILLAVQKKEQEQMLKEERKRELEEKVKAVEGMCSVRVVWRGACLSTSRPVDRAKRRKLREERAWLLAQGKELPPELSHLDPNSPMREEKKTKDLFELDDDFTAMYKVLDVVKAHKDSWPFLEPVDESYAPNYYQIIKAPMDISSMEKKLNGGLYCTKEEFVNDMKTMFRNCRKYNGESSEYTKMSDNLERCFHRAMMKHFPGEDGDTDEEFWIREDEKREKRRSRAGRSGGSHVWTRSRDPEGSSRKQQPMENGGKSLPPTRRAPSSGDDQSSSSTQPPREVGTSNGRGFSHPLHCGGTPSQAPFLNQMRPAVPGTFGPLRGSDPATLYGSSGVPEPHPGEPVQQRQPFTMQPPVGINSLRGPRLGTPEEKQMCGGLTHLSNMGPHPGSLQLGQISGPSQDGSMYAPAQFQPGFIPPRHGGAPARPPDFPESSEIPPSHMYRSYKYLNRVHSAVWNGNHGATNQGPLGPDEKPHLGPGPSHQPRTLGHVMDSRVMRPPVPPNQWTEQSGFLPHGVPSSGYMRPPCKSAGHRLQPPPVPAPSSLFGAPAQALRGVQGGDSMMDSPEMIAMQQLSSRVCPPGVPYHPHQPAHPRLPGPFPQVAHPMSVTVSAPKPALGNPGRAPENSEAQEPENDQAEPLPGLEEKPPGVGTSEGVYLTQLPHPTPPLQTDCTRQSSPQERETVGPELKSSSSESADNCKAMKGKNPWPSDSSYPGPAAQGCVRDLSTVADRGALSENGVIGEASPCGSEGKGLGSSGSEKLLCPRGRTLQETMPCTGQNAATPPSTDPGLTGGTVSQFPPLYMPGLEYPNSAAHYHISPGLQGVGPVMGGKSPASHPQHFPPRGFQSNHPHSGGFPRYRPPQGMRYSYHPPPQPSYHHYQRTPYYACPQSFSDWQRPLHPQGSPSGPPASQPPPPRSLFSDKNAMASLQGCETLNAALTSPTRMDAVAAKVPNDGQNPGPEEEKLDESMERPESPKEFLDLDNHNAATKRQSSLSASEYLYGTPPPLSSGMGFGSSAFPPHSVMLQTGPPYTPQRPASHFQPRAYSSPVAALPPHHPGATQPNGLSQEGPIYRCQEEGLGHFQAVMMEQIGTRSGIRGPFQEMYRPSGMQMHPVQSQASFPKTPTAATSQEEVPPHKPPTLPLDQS

## CN(C)CCCOc1ccc(-c2cc(NCCCn3cccn3)nc(S(C)(=O)=O)n2)cc1
[1]
  dTM: 11.1 K

## CCc1ccccc1C(=O)Nc1n[nH]c2c(C)c(F)c(C3C(C#N)=C(C)N(C)C(C)=C3C#N)cc12 [BAY-3827]
[2]
  % of inhibition: 20%

## C=CC(=O)Nc1cc(-n2c(=O)ccc3cnc4ccc(-c5ccc(NS(C)(=O)=O)cc5)cc4c32)ccc1C
[3]; at 1 µM
  % of control: 84%
[3]; at 10 µM
  % of control: 64%

## Cc1cc(F)c(C(=O)Nc2cccc(-c3nncn3C(C)C)n2)cc1-n1cnc(C2CC2)c1
[4]
  % of control: 77%

## COc1cc(Nc2nc(C)cc(-c3cnn4nc(OC)ccc34)n2)cc(C(F)(F)F)c1
[5]
  % of control: 84%

## N#Cc1cccc(-c2c[nH]c3ncnc(N4CCOCC4)c23)c1
[6]
  % of control: 100%

## CCc1cc(Nc2nccc(-c3c(-c4ccc(OC)c(C(=O)Nc5c(F)cccc5F)c4)nc4ccccn34)n2)c(OC)cc1N1CCC(N2CCN(S(C)(=O)=O)CC2)CC1
[7]
  IC50: > 11 µM

## CC[C@@H]1[C@H](F)C(=O)N[C@@H]1COc1nccc2cc(C(N)=O)c(OC)cc12 [ZIMLOVISERTIB]
[8]; at 0.01 µM
  % of inhibition: -0.4%
[8]; at 0.04 µM
  % of inhibition: -0.5%
[8]; at 0.2 µM
  % of inhibition: -5.2%
[8]; at 1 µM
  % of inhibition: 3%
[8]; at 5 µM
  % of inhibition: 6.3%
[9]
  % of inhibition: 12.6%

## CCC(=O)N1CCN(c2ccc(-n3c(=O)ccc4cnc5ccc(-c6cnc7ccccc7c6)cc5c43)cc2C(F)(F)F)CC1
[10]
  % of control: 8.1%
